Measurements: patent publication US20140148419A1, “Treatment of Excessive Menstrual Bleeding Associated with Uterine Fibroids” (PREGLEM SA, priority 2011, published 2014)

Tested on: premenopausal women with heavy uterine bleeding due to uterine fibroids
Test: Double-blind, randomized, placebo-controlled clinical study; menstrual bleeding assessed by pictorial blood loss assessment chart (PBAC), with or without later uterine artery embolization (UAE)
Format: in vivo, human
Details: for % Patient with PBAC < 75 at baseline / PBAC at baseline: before treatment; for PBAC at baseline / PBAC 3 months after treatment stop / PBAC 6 months after treatment stop / PBAC at week 13 of treatment: Mean +/- SD
Method: A double-blind, randomized, placebo-controlled study was conducted to evaluate the long term effect of ulipristal acetate in the treatment of uterine fibroids. Patients included premenopausal women 18-50 years with heavy uterine bleeding due to uterine fibroids who were eligible for surgery. These patients met the criteria of a Pictorial Bleeding Assessment Chart (PBAC) score >100 during days 1-8 of menstruation.
The patients were randomized in a 2:2:1 manner to receive for 12 weeks, either ulipristal acetate (UPA) 5 mg or ulipristal acetate 10 mg or placebo. In addition, all patients received concomitant iron therapy (1 tablet of 80 mg or iron once daily, Tardyfero®). The reference to 2:2:1 means that for every 5 patients, two would be randomized to receive UA 5 mg, two to receive UA 10 mg and one to receive placebo.
Forty-eight patients received a daily placebo treatment, 95 patients received a daily dose of 5 mg ulipristal acetate (Esmya®), and 98 patients received a daily dose of 10 mg ulipristal acetate (Esmya®). […] Thirty-three subjects underwent a Uterine Artery Embolization at or after week 13: 4 patients in the placebo group (group 4), 11 patients in the 5 mg ulipristal (Esmya®) group (group 5) and 18 patients in the 10 mg ulipristal (Esmya®)) group (group 6).
For study enrollment as well as follow-up assessment, menstrual bleeding was assessed using the pictorial blood loss assessment chart (PBAC) developed by Higham and colleagues (Higham J M, O'Brien P M, Shaw R W. Assessment of menstrual blood loss using a pictorial chart. Br J Obstet Gynaecol 1990; 97:734-9). The PBAC is one of the current standard methods used to objectively estimate menstrual blood loss and diagnose menorrhagia. Abnormal bleeding is defined as PBAC score >100 over 8 days of menstruation. Normal menstrual bleeding PBAC is <75. Amenorrhea is PBAC=0.
The PBAC score was assessed before treatment (Baseline), at week 13 after the end of treatment with ulipristal, at 3 months and 6 months after […].
The PBAC and the % of patients with a PBAC <75 was reported before treatment (Baseline), at week 13 after the end of treatment with ulipristal, at 3 months and 6 months after the treatment stop.

[1] = 5 mg daily, no UAE or any other surgery (Group 2)
[2] = 5 mg daily, no UAE or any other surgery (Group 2), listed as ulipristal
[3] = 5 mg daily, with UAE (Group 5), listed as ulipristal
[4] = 10 mg daily, no UAE or any other surgery (Group 3)
[5] = 10 mg daily, no UAE or any other surgery (Group 3), listed as ulipristal
[6] = 10 mg daily, with UAE (Group 6)
[7] = 10 mg daily, with UAE (Group 6), listed as ulipristal
[8] = 5 mg daily, with UAE performed after treatment stop (Group 5)
[9] = 10 mg daily, with UAE performed after treatment stop (Group 6)

CC(=O)O[C@]1(C(C)=O)CC[C@H]2[C@@H]3CCC4=CC(=O)CCC4=C3[C@@H](c3ccc(N(C)C)cc3)C[C@@]21C [Esmya, 17α-acetoxy-11β-[4-N,N-dimethylaminophenyl)-19-norpregna-4,9-diene-3,20-dione]
% Patient with PBAC < 75, 3 months after end of treatment [1]: 15% | % Patient with PBAC < 75, 6 months after end of treatment [1]: 17% | % Patient with PBAC < 75 at week 13 of treatment [1]: 98% | % Patient with PBAC < 75 at baseline [1]: 0% | % Patient with PBAC < 75, 3 months after end of treatment [2]: 15% | % Patient with PBAC < 75 at week 13 of treatment [2]: 98% | % Patient with PBAC < 75, 3 months after end of treatment (5 mg daily, with UAE (Group 5)): 36% | % Patient with PBAC < 75, 6 months after end of treatment (5 mg daily, with UAE (Group 5)): 27% | % Patient with PBAC < 75 at week 13 of treatment (5 mg daily, with UAE (Group 5)): 100% | % Patient with PBAC < 75 at baseline (5 mg daily, with UAE (Group 5)): 0% | % Patient with PBAC < 75, 3 months after end of treatment [3]: 36% | % Patient with PBAC < 75, 6 months after end of treatment [3]: 27% | % Patient with PBAC < 75 at week 13 of treatment [3]: 100% | % Patient with PBAC < 75, 3 months after end of treatment [4]: 17% | % Patient with PBAC < 75, 6 months after end of treatment [4]: 26% | % Patient with PBAC < 75 at week 13 of treatment [4]: 97% | % Patient with PBAC < 75 at baseline [4]: 0% | % Patient with PBAC < 75, 3 months after end of treatment [5]: 17% | % Patient with PBAC < 75 at week 13 of treatment [5]: 97% | % Patient with PBAC < 75, 3 months after end of treatment [6]: 60% | % Patient with PBAC < 75, 6 months after end of treatment [6]: 53% | % Patient with PBAC < 75 at week 13 of treatment [6]: 100% | % Patient with PBAC < 75 at baseline [6]: 0% | % Patient with PBAC < 75, 3 months after end of treatment [7]: 60% | % Patient with PBAC < 75, 6 months after end of treatment [7]: 53% | % Patient with PBAC < 75 at week 13 of treatment [7]: 100% | PBAC at baseline (5 mg daily oral 12 weeks, no UAE or any other surgery (Group 2)): 419 +/− 281 | PBAC at baseline (5 mg daily oral 12 weeks, with UAE performed after treatment stop (Group 5)): 490 +/− 231 | PBAC 3 months after treatment stop [1]: 337 +/− 300 | PBAC 6 months after treatment stop [1]: 338 +/− 233 | PBAC at week 13 of treatment [1]: 13 +/− 69 | PBAC 3 months after treatment stop [8]: 202 +/− 102 | PBAC 6 months after treatment stop [8]: 207 +/− 117 | PBAC at week 13 of treatment [8]: 25 +/− 60 | PBAC at baseline (10 mg daily oral 12 weeks, no UAE or any other surgery (Group 3)): 340 +/− 187 | PBAC at baseline (10 mg daily oral 12 weeks, with UAE performed after treatment stop (Group 6)): 375 +/− 135 | PBAC 3 months after treatment stop [4]: 417 +/− 669 | PBAC 6 months after treatment stop [4]: 203 +/− 161 | PBAC at week 13 of treatment [4]: 2 +/− 13 | PBAC 3 months after treatment stop [9]: 120 +/− 55 | PBAC 6 months after treatment stop [9]: 136 +/− 70 | PBAC at week 13 of treatment [9]: 0 +/− 0 | effect for controlling menstrual bleeding resulting from oral administration prior to UAE (oral ulipristal prior to UAE versus ulipristal alone and UAE alone): synergistic effect
